Measurements as given in US20020152479A1, “Car modulators: screening and treatment of hypercholesterolemia” (priority 2000, published 2002).
Like-named read-outs stand apart in the source and are kept apart here. Where no end group is shown, it is not given here. rhodamine = not defined here

Experiments:
mouse CAR = target: T1, mouse CAR (Mus musculus, UniProt O35627); conditions: Tzameli et al. (2000); read-out: EC50, upregulation of CAR-mediated transcription; cited from earlier work
T1 sequence (O35627 1-358): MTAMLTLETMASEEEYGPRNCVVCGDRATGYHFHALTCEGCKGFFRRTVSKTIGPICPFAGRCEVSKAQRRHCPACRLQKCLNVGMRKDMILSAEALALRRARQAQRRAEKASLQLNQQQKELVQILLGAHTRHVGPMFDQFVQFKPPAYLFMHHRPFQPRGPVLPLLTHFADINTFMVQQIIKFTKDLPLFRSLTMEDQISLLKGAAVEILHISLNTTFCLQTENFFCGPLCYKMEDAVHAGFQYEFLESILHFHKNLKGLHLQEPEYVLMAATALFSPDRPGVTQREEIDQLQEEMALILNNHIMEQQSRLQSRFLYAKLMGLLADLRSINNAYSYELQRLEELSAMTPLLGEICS

CYP2B = conditions: mouse, in vivo, ip, cited from earlier work
[1] = target: T2, GST-CARβ ligand binding domain fusion protein (Mus musculus, UniProt O35627); test: Peptide sensor fluorescence polarization assay, GST-CARβ ligand binding domain; conditions: half-maximal concentration of stimulation of peptide sensor assay signal
T2 construct: encoding amino acids 86 to 358 was subcloned; made in house
T2 sequence (O35627 86-358): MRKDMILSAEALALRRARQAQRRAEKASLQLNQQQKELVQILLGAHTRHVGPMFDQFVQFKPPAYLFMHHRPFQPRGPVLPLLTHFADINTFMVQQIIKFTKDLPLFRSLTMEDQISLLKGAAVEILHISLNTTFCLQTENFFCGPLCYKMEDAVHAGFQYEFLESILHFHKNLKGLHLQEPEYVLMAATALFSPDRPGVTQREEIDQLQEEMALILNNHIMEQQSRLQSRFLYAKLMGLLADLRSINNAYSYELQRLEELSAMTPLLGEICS
Procedure: (§1) A portion of DNA encoding the ligand binding domain of CARα encoding amino acids 76 to 348 (GenBank Accession No. CAA83016) was subcloned into a glutathione S-transferase (GST) fusion protein expression vector (pGEX-2TK, Amersham-Pharmacia) to create a vector that encodes a fusion protein in which GST is fused to the amino terminus of the CAR ligand binding domain. The GST-CAR protein was expressed in E. coli and purified over a glutathione affinity column. The GST-CAR fusion protein was incubated with a rhodamine-labeled peptide derived from the receptor binding domain of the coactivator SRC-1, rhodamine-[…] (SEQ ID NO: 7) (see WO 99/27365). The fluorescence polarization was measured as described in WO 99/27365.
(§2) Using the compounds set out in Table 1, a peptide sensor assay was carried out using the method of Example 3. Fusion proteins encoding the ligand binding domain of CARα (GST-CARα; see Example 3) and CARβ (GST-CARβ) were used in the assay. A portion of the DNA for the ligand binding domain of CARβ (GenBank Accession No. AF009327) encoding amino acids 86 to 358 was subcloned into a glutathione S-transferase (GST) fusion protein expression vector (pGEX-2TK, Amersham-Pharmacia) to create a vector that encodes a fusion protein in which GST is fused to the amino terminus of the CARβ ligand binding domain (GST-CARβ). The GST-CARβ was purified using glutathione affinity chromatography.
(§3) The notation ND means not determined.

[2] = Lipoprotein particle composition (LDL/VLDL) by electrophoresis of plasma, wild-type and CAR knockout mice; type: in vivo; conditions: single i.p. 3 mg/kg, four days after dosing
[3] = Total plasma cholesterol after TCPOBOP in CAR wild-type, heterozygous and knockout mice; type: in vivo; conditions: single i.p. 3 mg/kg, four days after dosing
[4] = Plasma cholesterol, HDL cholesterol and triglycerides in wild-type C57B1/6 mice; type: in vivo; conditions: single i.p. 3 mg/kg, four days after dosing
[5] = target: T3, GST-CARα ligand binding domain fusion protein (Homo sapiens, UniProt Q14994); test: Peptide sensor fluorescence polarization assay, GST-CARα ligand binding domain with rhodamine-[…] (SRC-1 peptide)
T3 construct: made in house; host or cells: E. coli
T3 sequence (Q14994 76-348 isoform Q14994-2): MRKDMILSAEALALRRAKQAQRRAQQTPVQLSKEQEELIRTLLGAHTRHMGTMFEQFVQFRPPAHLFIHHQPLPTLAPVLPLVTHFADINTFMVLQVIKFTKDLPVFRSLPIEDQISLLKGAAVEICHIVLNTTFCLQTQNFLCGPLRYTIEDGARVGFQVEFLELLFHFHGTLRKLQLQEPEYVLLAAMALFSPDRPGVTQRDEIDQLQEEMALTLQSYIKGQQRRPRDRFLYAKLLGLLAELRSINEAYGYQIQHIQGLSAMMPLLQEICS
Procedure: as §1, §2, §3

CARα = target: T4, CARα (Homo sapiens, UniProt Q14994); type: cell-based
T4 construct: expressed in transfected cells; host or cells: CV-1 cells
T4 sequence (Q14994 1-348 isoform Q14994-2): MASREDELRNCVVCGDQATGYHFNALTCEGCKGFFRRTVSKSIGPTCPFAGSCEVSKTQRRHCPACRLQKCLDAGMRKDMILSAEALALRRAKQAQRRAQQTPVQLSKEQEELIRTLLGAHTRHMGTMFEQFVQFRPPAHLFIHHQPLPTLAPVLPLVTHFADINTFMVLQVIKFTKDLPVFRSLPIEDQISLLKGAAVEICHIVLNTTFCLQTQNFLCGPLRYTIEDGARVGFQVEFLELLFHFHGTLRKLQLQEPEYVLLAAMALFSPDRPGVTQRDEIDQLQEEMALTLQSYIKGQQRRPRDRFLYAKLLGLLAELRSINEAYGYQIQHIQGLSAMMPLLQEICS

CARβ = target: T5, CARβ (Mus musculus, UniProt O35627); type: cell-based
T5 construct: expressed in transfected cells; host or cells: CV-1 cells
T5 sequence (O35627 1-358): T1 sequence (O35627 1-358)

CAR = test: RARE-luciferase reporter gene assay in CV-1 cells with increasing CAR expression plasmid (Example 4); type: cell-based; conditions: 10 μM compound, 24 h
[6] = target: GST-CARβ ligand binding domain fusion protein (mouse, UniProt P08515 1-218 = GST; O35627 86-358); test: fluorescence polarization peptide sensor assay, with small-molecule agonists
[7] = half-maximal concentration of stimulation of peptide sensor assay signal, read-out: GST-CARα EC50

For `Clc1cnc(Oc2ccc(Oc3ncc(Cl)cc3Cl)cc2)c(Cl)c1` [TCPOBOP, 1,4-bis[2-(3,5-dichloropyridyloxy)]benzene], the EC50 (mouse CAR) is given as 20 nM, the “Duration of CYP2B expression induction” value (CYP2B; 3 mg/kg) is given as “over 20 weeks” and the “Dose inducing half maximal expression of CYP2B” value (CYP2B) is given as 66 µg/kg. For the same molecule, the EC50 [1] was 60 nM, the “Plasma levels of LDL/VLDL, CAR deficient (knockout) mice” value [2] was “unaffected” and the “Plasma levels of LDL/VLDL, wild-type mice” value [2] was “significant reduction”. For the same molecule, the “Plasma cholesterol levels, CAR knockout mice” value [3] was “no effect”, the “Reduction in total cholesterol, female heterozygous CAR mice (+/−)” value [3] was 60% and the “Total plasma cholesterol, mice with one functional CAR gene (+/−)” value [3] was “decreased total plasma cholesterol”. The “Total plasma cholesterol, wild-type littermates (+/+)” value [3] was “decreased total plasma cholesterol”, the “Reduction in HDL” value [4] was 40% and the “Reduction in total plasma cholesterol” value [4] was 40%. The “Reduction in triglyceride levels” value [4] was 15-30%.

With `COc1ccc(C2CC(c3ccc(Cl)cc3)=NN2c2ccccc2Cl)c(OC)c1` (centres unmarked) [Compound T0318784] the EC50 [5, 7] was 91.2 nM, the EC50 [1] was 96.7 nM and the “CMV-CARα, fold increase in normalized luciferase activity over DMSO control” value (CARα) was 1.78. The “CMV-CARβ, fold increase in normalized luciferase activity over DMSO control” value (CARβ) was 3.87.

With `CC(=O)[C@H]1CC[C@H]2[C@@H]3CC[C@@H]4CC(=O)CC[C@]4(C)[C@H]3CC[C@]12C` [5β-pregnan-3,20-dione] the EC50 [5] was 2500 nM, the “Fluorescence polarization between sensor peptide and GST-CAR” value [5] was “increased” and the “Transcription of the luciferase reporter gene (normalized luciferase activity)” value (CAR) was “increased transcription”.

With `CCOC(=O)C(Nc1ccc(OCc2ccccc2)cc1)c1ccccc1` (centres unmarked) [Compound T0037566] the EC50 [5, 7] was 221 nM, the EC50 [1] was 99.1 nM and the “CMV-CARα, fold increase in normalized luciferase activity over DMSO control” value (CARα) was 1.96. For the same molecule, the “CMV-CARβ, fold increase in normalized luciferase activity over DMSO control” value (CARβ) was 2.14.

Work on `C[C@]12CC[C@@H](O)C[C@@H]1CC[C@@H]1[C@@H]2CC[C@]2(C)C=CC[C@@H]12` [5α-androst-16-en-3α-ol] yielded an IC50 ([5]; in the presence of 5 μM 5β-pregnan-3,20-dione, read-out: IC50, decrease of fluorescence polarization seen with 5β-pregnan-3,20-dione) of 530 nM.

With `CCN(CC)c1ccc(C2C3=C(CC(C)(C)CC3=O)OC3=C2C(=O)CC(C)(C)C3)c(OCc2ccc(Cl)cc2Cl)c1` [Compound T0438248] the EC50 [5, 7] was 5.25 nM, the EC50 [1] was 65.4 nM and the “CMV-CARα, fold increase in normalized luciferase activity over DMSO control” value (CARα) was 2.92. The “CMV-CARβ, fold increase in normalized luciferase activity over DMSO control” value (CARβ) was 0.96.

With `Clc1ccc(CSCc2cc(Sc3c(Cl)cccc3Cl)nc(-c3ccccn3)n2)cc1` [Compound T0434523] the EC50 [5, 7] was 79.7 nM, the EC50 [1] was 52.2 nM and the “CMV-CARα, fold increase in normalized luciferase activity over DMSO control” value (CARα) was 2.17. For the same molecule, the “CMV-CARβ, fold increase in normalized luciferase activity over DMSO control” value (CARβ) was 1.29.

For `C[C@@]12CCC[C@H]1[C@@H]1CC[C@H]3C[C@H](O)CC[C@]3(C)[C@H]1CC2` [5α-androstane-3α-ol], the “Transcription of the luciferase reporter gene (normalized luciferase activity)” value (CAR) was “decreased”.

B1: rhodamine-ILRKLLQE (rhodamine-labeled peptide derived from the receptor binding domain of the coactivator SRC-1) (peptide)
peptide: rhodamine-ILRKLLQE
modifications: reading uncertain; also: printed as rhodamine-ILRKLLQE
notes: Labeled 8-mer used as the fluorescence polarization sensor; also called sensor peptide
B1: binds [6].
